pEC50: −log10 of the molar value. Counter-ions that a name gives are not always drawn.

Common to all, as to format: cell-based
The subject of test [1] is human B cell lymphoblastoid cell line Ramos. As to the kind of experiment: Caspase cascade activation (EC50), Ramos. As to conditions: Homo sapiens, RAMOS cells, read-out: caspase potency (EC50) RAMOS. As to the method:
(§1) Human breast cancer cell lines T-47D, human hepatocellular carcinoma cell line SNU398, human colon carcinoma cell line HCT116, human cancer cell line H1299, human Burkitt's lymphoma cell line Namalwa, human lymphoma cell line Raji, and human B cell lymphoblastoid cell line Ramos were grown according to media component mixtures designated by American Type Culture Collection+10% FCS (Invitrogen Corporation), in a 5% CO2-95% humidity incubator at 37° C. T-47D and H1299 cells were maintained at a cell density between 50 and 80% confluency at a cell density of 0.1 to 0.6×10^6 cells/mL. Cells were harvested at 600×g and resuspended at 0.65×10^6 cells/mL into appropriate media+10% FCS. An aliquot of 22.5 μL of cells was added to a well of a 384-well microtiter plate containing 2.5 μL of a 10% DMSO in RPMI-1640 media solution containing 0.16 to 100 μM of 3-(2-chlorophenyl)-6-(3,4-methylenedioxyphenyl)-7H-[1,2,4]triazolo[3,4-b][1,3,4]thiadiazine or other test compound (0.016 to 10 μM final). An aliquot of 22.5 μL of cells was added to a well of a 384-well microtiter plate containing 2.5 μL of a 10% DMSO in RPMI-1640 media solution without test compound as the control sample. The samples were mixed by agitation and then incubated at 37° C. for 48 h in a 5% CO2-95% humidity incubator. After incubation, the samples were removed from the incubator and 25 μL of a solution containing 14 μM of N—(Ac-DEVD)-N′-ethoxycarbonyl-R110 (SEQ ID No.:1) fluorogenic substrate (Cytovia, Inc.; WO99/18856), 20% sucrose (Sigma), 20 mM DTT (Sigma), 200 mM NaCl (Sigma), 40 mM Na PIPES buffer pH 7.2 (Sigma), and 500 μg/mL lysolecithin (Calbiochem) was added. The samples were mixed by agitation and incubated at room temperature. Using a fluorescent plate reader (Model SPECTRAfluor Plus, Tecan), an initial reading (T=0) was made approximately 1-2 min after addition of the substrate solution, employing excitation at 485 nm and emission at 530 nm, to determine the background fluorescence of the control sample. After the 3 h incubation, the samples were read for fluorescence as above (T=3 h). Calculation: The Relative Fluorescence Unit values (RFU) were used to calculate the sample readings as follows: RFU(T=3H)−Control RFU(T=0)=Net RFU(T=3h) The activity of caspase cascade activation was determined by the ratio of the net RFU value for 3-(2-chlorophenyl)-6-(3,4-methylenedioxyphenyl)-7H-[1,2,4]triazolo[3,4-b][1,3,4]thiadiazine (Example P) or other test compound to that of control samples. The EC50 (nM) was determined by a sigmoidal dose-response calculation (Prism 3.0, GraphPad Software Inc.).

The test system of test [2] is human Burkitt's lymphoma cell line Namalwa. As to the kind of experiment: Caspase cascade activation (EC50), Namalwa. The settings on record: Homo sapiens, Burkitts lymphoma cell; Namalwa cells; caspase cascade activation; read-out: caspase potency (EC50) Namalwa. The gist of the method:
(§2)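 EC50 values derive from a sigmoidal fit of net fluorescence (3 h reading minus control T=0 background) relative to untreated control. The 3 h room-temperature read used 14 μM DEVD-R110 substrate with lysolecithin, DTT and pH 7.2 PIPES buffer at 485/530 nm. Beforehand, cells were treated 48 h at 37° C with 0.016-10 μM final compound.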

The test system of test [3] is human colon carcinoma cell line HCT116. As to the kind of experiment: Caspase cascade activation (EC50), HCT116. The settings on record: Homo sapiens, HCT-116; HCT116 cells; caspase cascade activation; read-out: caspase potency (EC50) HCT116. The method, boiled down: as §2
The subject of test [4] is human hepatocellular carcinoma cell line SNU398. As to the kind of experiment: Caspase cascade activation (EC50), SNU398. As to conditions: Homo sapiens, SNU-398; SNU398 cells; caspase cascade activation; read-out: caspase potency (EC50) SNU398. The gist of the method: as §2
Test [5] concerns human breast cancer cell line T-47D. As to the kind of experiment: Caspase cascade activation (EC50), T-47D. As to conditions: Homo sapiens; T47D cells; caspase cascade activation; read-out: caspase potency (EC50) T47D. The gist of the method: as §2
The subject of test [6] is human lymphoma cell line Raji. As to the kind of experiment: Caspase cascade activation (EC50), Raji. The settings on record: Homo sapiens, RAJI cells, read-out: caspase potency (EC50) RAJI. The procedure:
as §1

Take `CCOc1ccc(C2=Nn3c(nnc3-c3ccc(F)cc3)SC2)cc1` [Example P2, 3-(4-Fluorophenyl)-6-(4-ethoxyphenyl)-7H-[1,2,4]triazolo[3,4-b][1,3,4]thiadiazine]: the pEC50 was 6.18 in test [1]; 6.06 in test [2]; 5.83 in test [3]; 6.33 in test [4]; 5.67 in test [5]; 6.05 in test [6].
Take `COc1cc(-c2nnc3n2N=C(c2ccc4ccccc4c2)CS3)cc(OC)c1OC` [Example Y1, 3-(3,4,5-Trimethoxyphenyl)-6-(2-naphthyl)-7H-[1,2,4]triazolo[3,4-b][1,3,4]thiadiazine]: the pEC50 is 7.00 in test [1]; 6.86 in test [2]; 6.92 in test [3]; 7.09 in test [4]; 6.25 in test [5]; 6.90 in test [6].
In the case of `COc1cc(-c2nnc3n2N=C(c2cccc(Br)c2)CS3)cc(OC)c1OC` [Example X1, 3-(3,4,5-Trimethoxyphenyl)-6-(3-bromophenyl)-7H-[1,2,4]triazolo[3,4-b][1,3,4]thiadiazine], the pEC50 in test [1] was 5.60; in test [2], 5.60; in test [3] it was 5.60; in test [4] it was 5.58; in test [5], 5.58; in test [6], 5.47.
Take `COc1ccc(-c2nnc3n2N=C(c2ccc([N+](=O)[O-])cc2)CS3)cc1OC` [Example 28, 3-(3,4-Dimethoxyphenyl)-6-(4-nitrophenyl)-7H-[1,2,4]triazolo[3,4-b][1,3,4]thiadiazine]: the pEC50 in test [1], in test [2], in test [3], in test [4], in test [5] and in test [6] was < 5.00 each time.
As to `Fc1ccccc1-c1nnc2n1N=C(c1ccc3c(c1)OCO3)CS2` [Example Q1, 3-(2-Fluorophenyl)-6-(3,4-methylenedioxyphenyl)-7H-[1,2,4]triazolo[3,4-b][1,3,4]thiadiazine], the pEC50 is 6.58 in test [1]; 6.60 in test [2]; 6.26 in test [3]; 6.59 in test [4]; 6.56 in test [5]; 6.32 in test [6].
Turning to `COc1ccc(C2=Nn3c(nnc3-c3cccc(OC(C)C)c3)SC2)cc1` [Example K2, 3-(3-Isopropyloxyphenyl)-6-(4-methoxyphenyl)-7H-[1,2,4]triazolo[3,4-b][1,3,4]thiadiazine], the pEC50 in test [1] is 5.23; in test [2], 5.26; in test [3], < 5.00; in test [4] it was 5.25; in test [5], 5.26; in test [6] it was 5.26.
As for `COc1cc(-c2nnc3n2N=C(c2ccc(Br)cc2)CS3)cc(OC)c1OC` [Example U1, 3-(3,4,5-Trimethoxyphenyl)-6-(4-bromophenyl)-7H-[1,2,4]triazolo[3,4-b][1,3,4]thiadiazine], the negative-log EC50 (pEC50) in test [1] is 7.41; in test [2] it was 7.40; in test [3], 7.19; in test [4] it was 7.38; in test [5], 6.84; in test [6], 7.19.
As for `Oc1ccc(C2=Nn3c(nnc3-c3ccc(Cl)cc3)SC2)cc1` [Example 6, 3-(4-Chlorophenyl)-6-(4-hydroxyphenyl)-7H-[1,2,4]triazolo[3,4-b][1,3,4]thiadiazine hydrobromide], the pEC50 was 5.12 in test [1]; < 5.00 in test [2]; < 5.00 in test [3]; 5.27 in test [4]; 6.07 in test [5]; < 5.00 in test [6].
Regarding `CCOc1ccc(C2=Nn3c(nnc3-c3cccc(C)c3)SC2)cc1` [Example O2, 3-(3-Methylphenyl)-6-(4-ethoxyphenyl)-7H-[1,2,4]triazolo[3,4-b][1,3,4]thiadiazine], the pEC50 is 6.22 in test [1]; 6.20 in test [2]; 6.18 in test [3]; 6.36 in test [4]; 5.85 in test [5]; 6.19 in test [6].
In the case of `COc1ccc(C2=Nn3c(nnc3-c3ccc(F)cc3)SC2)cc1` [Example S2], the negative logarithm of the EC50 (pEC50) in test [1] was 6.47; in test [2], 6.26; in test [3], 6.15; in test [4] it was 6.57; in test [5], 5.78; in test [6], 6.24.
In the case of `COc1cc(-c2nnc3n2N=C(c2ccc(Cl)cc2)CS3)cc(OC)c1OC` [Example W1, 3-(3,4,5-Trimethoxyphenyl)-6-(4-chlorophenyl)-7H-[1,2,4]triazolo[3,4-b][1,3,4]thiadiazine], the pEC50 in test [1] was 7.11; in test [2], 6.82; in test [3], 6.89; in test [4], 6.95; in test [5], 6.56; in test [6], 7.14.
For `COc1cc(-c2nnc3n2N=C(c2ccc(O)c(O)c2)CS3)cc(OC)c1OC` [Example Z1, 3-(3,4,5-Trimethoxyphenyl)-6-(3,4-dihydroxyphenyl)-7H-[1,2,4]triazolo[3,4-b][1,3,4]thiadiazine], the pEC50 in test [1] was 6.66; in test [2], 6.70; in test [3], 6.62; in test [4], 7.00; in test [5] it was 6.55; in test [6], 6.75.
`COc1cc(-c2nnc3n2N=C(c2ccc(F)cc2)CS3)cc(OC)c1OC` [Example V1, 3-(3,4,5-Trimethoxyphenyl)-6-(4-fluorophenyl)-7H-[1,2,4]triazolo[3,4-b][1,3,4]thiadiazine]: the pEC50 in test [1] was 6.33; in test [2], 6.49; in test [3] it was < 5.00; in test [4] it was 5.98; in test [5] it was 5.88; in test [6] it was 6.21.
With `CCN(CC)c1ccc(C2=Nn3c(nnc3-c3ccc(OC)c(OC)c3)SC2)cc1` [Example 22, 6-(4-Diethylaminophenyl)-3-(3,4-dimethoxyphenyl)-7H-[1,2,4]triazolo[3,4-b][1,3,4]thiadiazine], the pEC50 in test [1] is 6.59; in test [2] it was 6.67; in test [3], 6.73; in test [4], 6.91; in test [5], 6.27; in test [6], 6.57.
As to `Cc1ccc(-c2nnc3n2N=C(c2ccc4c(c2)OCO4)CS3)cc1` [C, 3-(4-Methylphenyl)-6-(3,4-methylenedioxyphenyl)-7H-[1,2,4]triazolo[3,4-b][1,3,4]thiadiazine], the pEC50 in test [1] was 6.15; in test [2] it was 6.24; in test [3], < 5.00; in test [4], 6.22; in test [5] it was 6.17; in test [6], 6.25.
Take `c1cc2c(cc1C1=Nn3c(nnc3C3CCCCC3)SC1)OCO2` [Example M2, 3-Cyclohexyl-6-(3,4-methylenedioxyphenyl)-7H-[1,2,4]triazolo[3,4-b][1,3,4]thiadiazine]: the pEC50 was 5.29 in test [1]; 5.28 in test [2]; < 5.00 in test [3]; 5.32 in test [4]; 5.36 in test [5]; 5.29 in test [6].

These data come from US20080045514A1 (Cytovia, Inc., priority 2006, published 2008).
